Reference: patent US20200038355A1, “ANTIOXIDANTS FOR USE IN OPHTHALMIC SURGERY” (Case Western Reserve University, priority 2017, published 2020)
“Also recorded” adds a separate entry of the source. Where a name gives a salt, the structure may show the parent alone.

Assays:
Format in all cases: cell-based
[1] = test system: mouse lens ex vivo culture; test: Mouse whole lens ex vivo culture, lens capsule immunoblot
Procedure: The isolated intact lens was rinsed three times with HBSS and then cultured in 12-well-plates with serum-free Medium 199 (ThermoFisher) with 50 unit/ml penicillin streptomycin at 37° C. in 5% CO2 incubator, as described above. The lens explant was cultured following the same procedure as described by a previous report. […] et al., Exp Eye Res 71, 591-597 (2000). In brief, the mouse lens was placed in an anterior-toposterior orientation with the anterior attached to the culture dish. The lens posterior capsule was torn/cut by the tip of extra-fine forceps and then peeled towards anterior capsule and pinned on the plastic culture dish. The lens fiber mass was removed thereafter. The explant was cultured in serum-free MEM medium supplied with 50 unit/ml penicillin streptomycin at 37° C. in 5% CO2 incubator as described above. Only healthy growing explants were used for the described study and any unhealthy looking explants, such as folded explants or those with cell detachment, were discarded. Cells were placed 24 hr before the treatment and fresh medium was replaced immediately before the treatment. The indicated concentrations of BSO, DMF, NAC, GSH-EE or TGFβ2 were added to fresh medium and incubated at various time intervals as indicated. After treatment time, the cells were harvested after three washes with ice-cold PBS and subjected to immunoblot or other assays as described below. For whole lens culture, the serum-free medium with or without BSO, NAC, GSH-EE or TGFβ2 was incubated immediately after isolation for 48 hr and the whole lens or lens capsule was collected for further analysis. For lens explant culture, 48 hr after explant culture, various stimulates were used in fresh serum-free medium for an additional 48 hr, and the explant was fixed with 10% formaldehyde for 10 min before immunofluorescence stain, as described below. The cells, whole lens, lens capsule, and lens fibers were collected and lysed in lysis buffer containing 20 mM Tris pH 7.5, 1 mM EDTA, 1 mM EGTA, 150 mM NaCl, 1% Triton X-100, 2.5 mM sodium pyrophosphate, 1 mM bα-Glycerolphosphate, 1 mM Na3VO4, 1 mg/ml Leupeptin, 1 mM PMSF on ice for 10 min. The protein concentration from the supernatant was determined by protein BCA assay (ThermoFisher). The protein extract was further processed for immunoblot analysis and probed for αSMA, collagen I, vimentin, phosphorylated Smad2, phosphorylated Smad3, phosphorylated GSK-3β and (β-catenin. All data were normalized to the level of GAPDH.

HLE-B3 cells = test: EMT marker / Wnt-β-catenin immunoblot in human lens epithelial cell line HLE-B3; details: for type I collagen expression / vimentin expression: 24 h challenge, 25 μM DMF or both
Procedure: (§1) Cell Culture—Human lens epithelial cells (HLE-B3) were grown in DMEM medium with 10% fetal bovine serum (FBS), 2 mM glutamine and 50 unit/ml penicillin streptomycin (ThermoFisher, Waltham, Mass.) at 37° C. in a humidified 5% CO2 incubator. For primary porcine lens epithelial cell culture, pig eyes were collected at a local slaughterhouse within two hours of postmortem time, placed on ice and transported to the lab (about 1 hr) for immediate processing. First, the isolated lens was incubated with 2 ml of 0.25% trypsin at 37° C. for 2 min to remove any attached non-lens cells. Then, after a brief rinse with HBSS, the lens capsule was isolated and rinsed three times with HBSS before incubation with 2 ml of 0.5% trypsin for 5 min. 5 ml of complete DMEM medium was added and tissue was disrupted by pipetting up and down 10-15 times with a pipette fitted with a 1000 μl tip. The tissue homogenate was then passed through a 100 μm cell strainer. The cells were collected by low speed centrifugation at 150×g and placed in a 35 mm laminin-coated tissue culture dish with DMEM medium supplied with 10% FBS, 2 mM glutamine and 50 unit/ml penicillin streptomycin (ThernoFisher). The cells were cultured at 37° C. in a humidified incubator with 5% CO2.
(§2) Cells were placed 24 hr before the treatment and fresh medium was replaced immediately before the treatment. The indicated concentrations of BSO, DMF, NAC, GSH-EE or TGFβ2 were added to fresh medium and incubated at various time intervals as indicated. After treatment time, the cells were harvested after three washes with ice-cold PBS and subjected to immunoblot or other assays as described below. For whole lens culture, the serum-free medium with or without BSO, NAC, GSH-EE or TGFβ2 was incubated immediately after isolation for 48 hr and the whole lens or lens capsule was collected for further analysis. For lens explant culture, 48 hr after explant culture, various stimulates were used in fresh serum-free medium for an additional 48 hr, and the explant was fixed with 10% formaldehyde for 10 min before immunofluorescence stain, as described below.
The cells, whole lens, lens capsule, and lens fibers were collected and lysed in lysis buffer containing 20 mM Tris pH 7.5, 1 mM EDTA, 1 mM EGTA, 150 mM NaCl, 1% Triton X-100, 2.5 mM sodium pyrophosphate, 1 mM bα-Glycerolphosphate, 1 mM Na3VO4, 1 mg/ml Leupeptin, 1 mM PMSF on ice for 10 min. The protein concentration from the supernatant was determined by protein BCA assay (ThermoFisher). The protein extract was further processed for immunoblot analysis and probed for αSMA, collagen I, vimentin, phosphorylated Smad2, phosphorylated Smad3, phosphorylated GSK-3β and (β-catenin. All data were normalized to the level of GAPDH.

[2] = test system: primary porcine lens epithelial cells; test: αSMA expression in primary cultured porcine lens epithelial cells (pLEC)
Procedure: as §1
Cells were placed 24 hr before the treatment and fresh medium was replaced immediately before the treatment. The indicated concentrations of BSO, DMF, NAC, GSH-EE or TGFβ2 were added to fresh medium and incubated at various time intervals as indicated. After treatment time, the cells were harvested after three washes with ice-cold PBS and subjected to immunoblot or other assays as described below. […]
The cells, whole lens, lens capsule, and lens fibers were collected and lysed in lysis buffer containing 20 mM Tris pH 7.5, 1 mM EDTA, 1 mM EGTA, 150 mM NaCl, 1% Triton X-100, 2.5 mM sodium pyrophosphate, 1 mM bα-Glycerolphosphate, 1 mM Na3VO4, 1 mg/ml Leupeptin, 1 mM PMSF on ice for 10 min. The protein concentration from the supernatant was determined by protein BCA assay (ThermoFisher). […]

lens explant = test: Mouse lens explant culture (ex vivo PCO mimetic model), αSMA immunofluorescence; details: 1 ng/ml TGFβ2, 48 hr stimulation
Procedure: The isolated intact lens was rinsed three times with HBSS and then cultured in 12-well-plates with serum-free Medium 199 (ThermoFisher) with 50 unit/ml penicillin streptomycin at 37° C. in 5% CO2 incubator, as described above. The lens explant was cultured following the same procedure as described by a previous report. Tamiya et al., Exp Eye Res 71, 591-597 (2000). In brief, the mouse lens was placed in an anterior-toposterior orientation with the anterior attached to the culture dish. The lens posterior capsule was torn/cut by the tip of extra-fine forceps and then peeled towards anterior capsule and pinned on the plastic culture dish. The lens fiber mass was removed thereafter. The explant was cultured in serum-free MEM medium supplied with 50 unit/ml penicillin streptomycin at 37° C. in 5% CO2 incubator as described above. Only healthy growing explants were used for the described study and any unhealthy looking explants, such as folded explants or those with cell detachment, were discarded.
as §2, with “For lens explant culture, 48 hr after explant culture, various stimulates were used in fresh serum-free medium for an additional 48 hr, and the explant was fixed with 10% formaldehyde for 10 min before immunofluorescence stain, as described below.” left out
Confocal microscope—All confocal images were collected by a Leica SP8 gSTED confocal microscope equipped with two 3 Hyd SP GaAsP detectors and the AOBS system lasers include a 405 nm, Argon (458, 476, 488, 496, 514 nm), a tunable white light (470 to 670 nm), and a 592 nm STED depletion laser. For proper comparison, each channel of fluorescence was adjusted to the highest sensitivity/intensity but without over saturation from samples with the strongest signal. […]

[3] = mouse lens ex vivo culture, 500 μM BSO, 48 hrs
[4] = HLE-B3 cells, 24 hr treatment with increasing concentration of BSO or DMF
[5] = HLE-B3 cells, 24 hr, 500 μM BSO or 25 μM DMF
[6] = lens capsule after ex vivo lens culture, BSO plus XAV939, 48 hr
[7] = HLE-B3 cells, XAV939 co-incubated with 500 μM BSO, 24 hr

CCCCS(=N)(=O)CCC(N)C(=O)O (stereo not shown) [BSO, buthionine sulfoximine]
phosphorylation at serine 9 of GSK-3β ([1]; lens capsules after whole lens ex vivo culture with BSO, 48 hr): significantly increased | increase of vimentin expression compared to medium alone [1, 3]: ~2 fold | increase of αSMA expression compared to medium alone [1, 3]: over 3.5 fold | phosphorylation status of Smad2 and Smad3 (HLE-B3 cells; HLE-B3 cells with or without 500 μM BSO, 24 hr): no remarkable changes | αSMA production, combination with TGFβ2 (HLE-B3 cells; HLE-B3 cells, 500 μM BSO combined with 1 ng/ml TGFβ2, 24 hr): synergistic effect | phosphorylation at serine 9 of GSK-3β (HLE-B3 cells; HLE-B3 cells, 500 μM BSO, 24 hr): significantly elevated; also recorded: significantly increased | type I collagen expression (HLE-B3 cells; HLE-B3 cells, 500 μM BSO): Significantly increased; also recorded: significantly elevated | vimentin expression (HLE-B3 cells; HLE-B3 cells, 500 μM BSO): Significantly increased; also recorded: significantly elevated | αSMA expression (HLE-B3 cells; [4]): increased; also recorded: significantly upregulated | αSMA expression (HLE-B3 cells; [5]): Significantly increased | αSMA expression ([2]; pLECs, increased concentration of BSO, 24 hr): increases | concentration required to stimulate a similar fold of αSMA production ([2]; primary porcine lens epithelial cells, 24 hr, 100 times lower than in HLE-B3): 5 µM | cell death ([2]; primary porcine lens epithelial cells, higher dosages of BSO (>100 μM)): massive cell death and detachment

COC(=O)/C=C/C(=O)OC [DMF, dimethyl fumarate]
type I collagen expression (HLE-B3 cells; HLE-B3 cells, 500 μM BSO): Significantly increased; also recorded: significantly elevated | vimentin expression (HLE-B3 cells; HLE-B3 cells, 500 μM BSO): Significantly increased; also recorded: significantly elevated | αSMA expression (HLE-B3 cells; [4]): increased; also recorded: significantly upregulated | αSMA expression (HLE-B3 cells; [5]): Significantly increased

Oc1nc(-c2ccc(C(F)(F)F)cc2)nc2c1CSCC2 [XAV939]
αSMA production after BSO challenge [1, 6]: block | β-catenin production after BSO challenge [1, 6]: block | αSMA production after BSO challenge (HLE-B3 cells; [7]): block | β-catenin production after BSO challenge (HLE-B3 cells; [7]): block

B1: TGFβ2: Human TGFβ2, profibrogenic cytokine purchased from Sigma-Aldrich (protein, UniProt P61812 303-414, looked up)
Transforming growth factor …: ALDAAYCFRNVQDNCCLRPLYIDFKRDLGWKWIHEPKGYNANFCAGACPYLWSSDTQHSRVLSLYNTINPEASASPCCVSQDLEPLTILYYIGKTPKIEQLSNMIVKSCKCS
αSMA expression in lens explant compared to medium alone (lens explant): activated; also recorded: profound elevation
